Test system: NCI-H196 complex spheroid growth, percent test/control
Test: Anticancer human tumor NCI-H196 cell line growth inhibition [AhR];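 also: seven days of drug exposure starting three days after plating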;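 as to viability, T/C: 100% = DMSO vehicle control wells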
Conditions: for IC50: curve of first compound; for viability, T/C: stronger effect = lower value
Method in brief: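 Complex tumor spheroids co-cultured with HUVEC and human MSC stroma; AhR antagonists tested in combination with standard-of-care and investigational agents. Top concentration at or near clinical Cmax (else 10 microM), half-log dilutions; growth expressed as percent test/control.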

[1] = second compound 0.1 µM, first compound 0.0316 µM
[2] = second compound 0.1 µM, first compound 0.1 µM
[3] = second compound 0.316 µM, first compound 0.0316 µM
[4] = second compound 0.316 µM, first compound 0.1 µM
[5] = second compound 1 µM, first compound 0.0316 µM
[6] = second compound 1 µM, first compound 0.1 µM
[7] = second compound 3.16 µM, first compound 0.0316 µM
[8] = second compound 3.16 µM, first compound 0.1 µM
[9] = second compound 10 µM, first compound 0.0316 µM
[10] = second compound 10 µM, first compound 0.1 µM

`CC1(C)CCC(CN2CCN(c3ccc(C(=O)NS(=O)(=O)c4ccc(NCC5CCOCC5)c([N+](=O)[O-])c4)c(Oc4cnc5[nH]ccc5c4)c3)CC2)=C(c2ccc(Cl)cc2)C1` + CC(CO)NC(=O)c1cc(-c2ccc(Cl)cc2)nn(-c2cnn(C)c2)c1=O was tested, and the IC50 (second compound 0.1 µM) was over 10 µM, the IC50 (second compound 0.316 µM) was over 10 µM and the IC50 (second compound 1 µM) was over 10 µM. For the same compound, the IC50 (second compound 3.16 µM) was over 10 µM, the IC50 (second compound 10 µM) was over 10 µM and the viability, T/C [1] was 99.8%. The viability, T/C [2] was 100%, the viability, T/C (second compound 0.1 µM, first compound 0.316 µM) was 98.9% and the viability, T/C (second compound 0.1 µM, first compound 1 µM) was 98.2%. The viability, T/C (second compound 0.1 µM, first compound 3.16 µM) was 106%, the viability, T/C (second compound 0.1 µM, first compound 10 µM) was 104% and the viability, T/C [3] was 100%. For the same compound, the viability, T/C [4] was 101%, the viability, T/C (second compound 0.316 µM, first compound 0.316 µM) was 100% and the viability, T/C (second compound 0.316 µM, first compound 1 µM) was 101%. It also gave a viability, T/C (second compound 0.316 µM, first compound 3.16 µM) of 103%, a viability, T/C (second compound 0.316 µM, first compound 10 µM) of 86.9% and a viability, T/C [5] of 99.7%. It also gave a viability, T/C [6] of 98.8%, a viability, T/C (second compound 1 µM, first compound 0.316 µM) of 96.5% and a viability, T/C (second compound 1 µM, first compound 1 µM) of 109%. The viability, T/C (second compound 1 µM, first compound 3.16 µM) was 106%, the viability, T/C (second compound 1 µM, first compound 10 µM) was 104% and the viability, T/C [7] was 98.8%. For the same compound, the viability, T/C [8] was 101%, the viability, T/C (second compound 3.16 µM, first compound 0.316 µM) was 108% and the viability, T/C (second compound 3.16 µM, first compound 1 µM) was 108%. It also gave a viability, T/C (second compound 3.16 µM, first compound 3.16 µM) of 113%, a viability, T/C (second compound 3.16 µM, first compound 10 µM) of 99.3% and a viability, T/C [9] of 104%. For the same compound, the viability, T/C [10] was 113%, the viability, T/C (second compound 10 µM, first compound 0.316 µM) was 99.9% and the viability, T/C (second compound 10 µM, first compound 1 µM) was 115%. For the same compound, the viability, T/C (second compound 10 µM, first compound 3.16 µM) was 116% and the viability, T/C (second compound 10 µM, first compound 10 µM) was 96%.
`CC[C@@]1(O)C(=O)OCc2c1cc1n(c2=O)Cc2cc3c(CN(C)C)c(O)ccc3nc2-1` + CC(CO)NC(=O)c1cc(-c2ccc(Cl)cc2)nn(-c2cnn(C)c2)c1=O was tested, and the IC50 (second compound 0.1 µM) was over 0.1 µM, the IC50 (second compound 0.316 µM) was over 0.1 µM and the IC50 (second compound 1 µM) was over 0.1 µM. For the same compound, the IC50 (second compound 3.16 µM) was over 0.1 µM, the IC50 (second compound 10 µM) was over 0.1 µM and the viability, T/C (second compound 0.1 µM, first compound 0.000316 µM) was 104%. The viability, T/C (second compound 0.1 µM, first compound 0.001 µM) was 101%, the viability, T/C (second compound 0.1 µM, first compound 0.00316 µM) was 97.8% and the viability, T/C (second compound 0.1 µM, first compound 0.01 µM) was 97%. The viability, T/C [1] was 111%, the viability, T/C [2] was 119% and the viability, T/C (second compound 0.316 µM, first compound 0.000316 µM) was 111%. It also gave a viability, T/C (second compound 0.316 µM, first compound 0.001 µM) of 110%, a viability, T/C (second compound 0.316 µM, first compound 0.00316 µM) of 105% and a viability, T/C (second compound 0.316 µM, first compound 0.01 µM) of 105%. For the same compound, the viability, T/C [3] was 111%, the viability, T/C [4] was 129% and the viability, T/C (second compound 1 µM, first compound 0.000316 µM) was 98.6%. The viability, T/C (second compound 1 µM, first compound 0.001 µM) was 108%, the viability, T/C (second compound 1 µM, first compound 0.00316 µM) was 116% and the viability, T/C (second compound 1 µM, first compound 0.01 µM) was 100%. For the same compound, the viability, T/C [5] was 113%, the viability, T/C [6] was 119% and the viability, T/C (second compound 3.16 µM, first compound 0.000316 µM) was 110%. For the same compound, the viability, T/C (second compound 3.16 µM, first compound 0.001 µM) was 111%, the viability, T/C (second compound 3.16 µM, first compound 0.00316 µM) was 114% and the viability, T/C (second compound 3.16 µM, first compound 0.01 µM) was 96.8%. It also gave a viability, T/C [7] of 120%, a viability, T/C [8] of 118% and a viability, T/C (second compound 10 µM, first compound 0.000316 µM) of 111%. The viability, T/C (second compound 10 µM, first compound 0.001 µM) was 112%, the viability, T/C (second compound 10 µM, first compound 0.00316 µM) was 116% and the viability, T/C (second compound 10 µM, first compound 0.01 µM) was 103%. For the same compound, the viability, T/C [9] was 113% and the viability, T/C [10] was 124%.
